Measurements: publication PMC6416309, “Crystal structures of thiamine monophosphate kinase from Acinetobacter baumannii in complex with substrates and products” (Scientific Reports, 2019)

What was measured:
[1] = target: T1, AbThiL (ThiL, thiamine monophosphate kinase) (Acinetobacter baumannii, UniProt A0A0D5YC82); assay: X-ray crystallography (co-crystal), […] A monoclinic and […] A orthorhombic; assay type: binding; conditions: 5 mM ADP/TPP/MgCl2, paper assigns 5CM7, 5D9U and 6MFM to the two crystal forms inconsistently
T1 construct: non-cleavable N-terminal His6-tag (vector pBG1861), expressed in E. coli Rosetta BL21(DE3)R3; modelled Met1/Ala2 to Phe304/C-terminal Ala305; homodimer, active site at dimer interface
T1 sequence (A0A0D5YC82 1-305): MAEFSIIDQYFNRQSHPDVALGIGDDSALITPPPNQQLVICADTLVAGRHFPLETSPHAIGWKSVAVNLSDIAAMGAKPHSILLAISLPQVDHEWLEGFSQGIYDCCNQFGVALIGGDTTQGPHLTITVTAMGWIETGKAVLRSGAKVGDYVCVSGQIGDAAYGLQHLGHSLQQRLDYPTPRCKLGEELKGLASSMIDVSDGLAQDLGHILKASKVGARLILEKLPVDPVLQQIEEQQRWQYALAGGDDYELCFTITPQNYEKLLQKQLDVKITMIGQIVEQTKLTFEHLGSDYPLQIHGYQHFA

[2] = target: T1, AbThiL (ThiL, thiamine monophosphate kinase); assay: X-ray crystallography (co-crystal), […] A; assay type: binding; conditions: AMPPNP alone, 5 mM AMPPNP/MgCl2, NaBr; ATP site; also with TMP in 5DD7
[3] = target: T1, AbThiL (ThiL, thiamine monophosphate kinase); assay: X-ray crystallography (overnight soak of AMPPNP co-crystals), […] A; assay type: binding; conditions: ternary complex with AMPPNP; Mg2+; 5 mM AMPPNP/TMP/MgCl2; K/Na-tartrate, HEPES pH 7.5; active site at dimer interface
[4] = target: the molecule itself; assay: crystal structure; AbThiL co-crystallised or soaked with AMPPNP, AMPPNP/TMP or ADP/TPP and MgCl2; orthorhombic (P21212) and monoclinic (P21) crystal forms; sitting drops at 287 K

Nc1ncnc2c1ncn2[C@@H]1O[C@H](COP(=O)(O)OP(=O)(O)O)[C@@H](O)[C@H]1O [ADP]
X-ray crystallography (co-crystal), 1.55 A monoclinic and 1.90 A orthorhombic ([1]; ternary complex with TPP, ATP/ADP site): with the products ADP/TDP (orthorhombic and monoclinic)

Nc1ncnc2c1ncn2[C@@H]1O[C@H](COP(=O)(O)OP(=O)(O)NP(=O)(O)O)[C@@H](O)[C@H]1O [AMPPNP]
X-ray crystallography (co-crystal), 1.75 A [2]: AbThiL in complex with AMPPNP alone (orthorhombic)

Cc1ncc(C[n+]2csc(CCOP(=O)(O)O)c2C)c(N)n1 [TMP]
X-ray crystallography (overnight soak of AMPPNP co-crystals), 1.70 A [3]: AbThiL in complex with AMPPNP alone (orthorhombic), the substrate analogs AMPPNP/TMP (orthorhombic)

Cc1ncc(C[n+]2csc(CCOP(=O)(O)OP(=O)(O)O)c2C)c(N)n1 [TPP]
X-ray crystallography (co-crystal), 1.55 A monoclinic and 1.90 A orthorhombic ([1]; ternary complex with ADP, TMP/TPP site): with the products ADP/TDP (orthorhombic and monoclinic)

B1: Thiamine monophosphate kinase (ThiL) from Acinetobacter baumannii (enzyme, UniProt A0A0D5YC82 1-305, looked up)
chain: T1 sequence (A0A0D5YC82 1-305)
notes: Thiamine monophosphate kinase (ThiL), Acinetobacter baumannii strain AB5075-UW, gene amplified from genomic DNA; The vector pBG1861 provides a non-cleavable N-terminal His6-tag; also called AbThiL; not shown: His6, N-terminal, kept
stoichiometry N [4]: 2
